Values quoted from earlier work in US7105698B2, “Process for the separation of R(-)-and S(+)-5-[2-[[2-(2-ethoxyphenoxy)ethyl]amino]propyl]-2- methoxybenzenesulfonamide” (Ragactives, S.L., priority 2002, dated 2006).

Details: ratio R(−)-I versus S(+)-I; prior studies

Compound: CCOc1ccccc1OCCN[C@H](C)Cc1ccc(OC)c(S(N)(=O)=O)c1 [R(−)-I, R(−)-5-[2-[[2-(2-ethoxyphenoxy)ethyl]amino]propyl]-2-methoxybenzenesulfonamide]
- pharmacological action of R(−)-I relative to its S(+)-I enantiomer: up to 320 times
